Measured values as given in the kinase profiling compilation of Christmann-Franck et al. (2016).

Columns and labels:
Assay in all cases: radiometric filter-binding kinase assay, Kinase HotSpot
Settings in all cases: compound 0.5 µM; ATP 10 µM
[1] = molecular target: ABL1 (human) (UniProt P00519)
[2] = molecular target: ACVR1B (human) (UniProt P36896)
[3] = molecular target: AURKB (human) (UniProt Q96GD4)
[4] = molecular target: CAMK1D (human) (UniProt Q8IU85)
[5] = molecular target: CDK4 CCND3 (human) (UniProt P30281+P11802)
[6] = molecular target: CDK5 CDK5R1 p35 (human) (UniProt Q00535+Q15078)
[7] = molecular target: CLK1 (human) (UniProt P49759)
[8] = molecular target: CSNK2A2 (human) (UniProt P19784)
[9] = molecular target: EGFR (human) (UniProt P00533)
[10] = molecular target: EPHA5 (human) (UniProt P54756)
[11] = molecular target: EPHA7 (human) (UniProt Q15375)
[12] = molecular target: EPHB2 (human) (UniProt P29323)
[13] = molecular target: GSK3B (human) (UniProt P49841)
[14] = molecular target: HIPK4 (human) (UniProt Q8NE63)
[15] = molecular target: ITK (human) (UniProt Q08881)
[16] = molecular target: LTK (human) (UniProt P29376)
[17] = molecular target: MAP2K2 (human) (UniProt P36507)
[18] = molecular target: MAP3K10 (human) (UniProt Q02779)
[19] = molecular target: MAP3K11 (human) (UniProt Q16584)
[20] = molecular target: MAP3K2 (human) (UniProt Q9Y2U5)
[21] = molecular target: MAP3K8 (human) (UniProt P41279)
[22] = molecular target: MAP3K9 (human) (UniProt P80192)
[23] = molecular target: MAP4K4 (human) (UniProt O95819)
[24] = molecular target: MAPK10 (human) (UniProt P53779)
[25] = molecular target: MAPKAPK2 (human) (UniProt P49137)
[26] = molecular target: MARK3 (human) (UniProt P27448)
[27] = molecular target: PASK (human) (UniProt Q96RG2)
[28] = molecular target: PHKG2 (human) (UniProt P15735)
[29] = molecular target: PKN2 (human) (UniProt Q16513)
[30] = molecular target: PNCK (human) (UniProt Q6P2M8)
[31] = molecular target: PRKCG (human) (UniProt P05129)
[32] = molecular target: PRKCI (human) (UniProt P41743)
[33] = molecular target: PRKCZ (human) (UniProt Q05513)
[34] = molecular target: ROS1 (human) (UniProt P08922)
[35] = molecular target: RPS6KA4 KD2 (human) (UniProt O75676)
[36] = molecular target: RPS6KB2 (human) (UniProt Q9UBS0)
[37] = molecular target: STK25 (human) (UniProt O00506)
[38] = molecular target: STK3 (human) (UniProt Q13188)
[39] = molecular target: TAOK2 (human) (UniProt Q9UL54)
[40] = molecular target: TEC (human) (UniProt P42680)
[41] = molecular target: TSSK1B (human) (UniProt Q9BXA7)
[42] = molecular target: ULK2 (human) (UniProt Q8IYT8)

PRKCI (human), sequence (P41743 whole entry, looked up): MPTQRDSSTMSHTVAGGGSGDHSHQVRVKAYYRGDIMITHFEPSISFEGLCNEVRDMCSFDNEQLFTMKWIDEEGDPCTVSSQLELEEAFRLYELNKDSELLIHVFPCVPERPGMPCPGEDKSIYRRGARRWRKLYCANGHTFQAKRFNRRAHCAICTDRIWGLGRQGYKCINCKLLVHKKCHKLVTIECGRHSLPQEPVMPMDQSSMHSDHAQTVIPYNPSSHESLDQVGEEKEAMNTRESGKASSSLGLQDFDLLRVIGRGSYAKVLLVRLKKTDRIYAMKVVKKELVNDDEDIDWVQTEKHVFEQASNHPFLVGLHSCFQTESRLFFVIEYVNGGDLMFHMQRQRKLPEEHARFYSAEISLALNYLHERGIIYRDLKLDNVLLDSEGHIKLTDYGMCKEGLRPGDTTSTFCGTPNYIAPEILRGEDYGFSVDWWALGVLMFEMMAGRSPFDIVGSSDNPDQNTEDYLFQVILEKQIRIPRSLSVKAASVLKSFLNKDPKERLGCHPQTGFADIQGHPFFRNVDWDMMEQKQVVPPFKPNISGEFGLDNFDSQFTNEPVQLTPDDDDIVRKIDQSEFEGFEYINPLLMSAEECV
HIPK4 (human), sequence (Q8NE63 whole entry, looked up): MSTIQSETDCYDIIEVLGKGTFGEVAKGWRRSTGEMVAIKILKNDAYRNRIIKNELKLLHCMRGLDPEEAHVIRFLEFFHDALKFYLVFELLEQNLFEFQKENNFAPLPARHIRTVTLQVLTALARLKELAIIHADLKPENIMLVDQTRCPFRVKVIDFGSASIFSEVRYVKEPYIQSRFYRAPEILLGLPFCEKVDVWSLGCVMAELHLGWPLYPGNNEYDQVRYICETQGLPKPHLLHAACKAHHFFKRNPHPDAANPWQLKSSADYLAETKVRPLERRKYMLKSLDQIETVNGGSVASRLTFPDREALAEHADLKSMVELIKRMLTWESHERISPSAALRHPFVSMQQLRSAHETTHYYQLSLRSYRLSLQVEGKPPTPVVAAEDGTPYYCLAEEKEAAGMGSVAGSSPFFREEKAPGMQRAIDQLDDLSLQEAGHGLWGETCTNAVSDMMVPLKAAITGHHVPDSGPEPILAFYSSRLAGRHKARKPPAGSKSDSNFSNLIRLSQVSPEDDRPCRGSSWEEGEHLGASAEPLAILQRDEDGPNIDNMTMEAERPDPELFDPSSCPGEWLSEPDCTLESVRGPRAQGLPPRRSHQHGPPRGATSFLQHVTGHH
MAP3K2 (human), sequence (Q9Y2U5 whole entry, looked up): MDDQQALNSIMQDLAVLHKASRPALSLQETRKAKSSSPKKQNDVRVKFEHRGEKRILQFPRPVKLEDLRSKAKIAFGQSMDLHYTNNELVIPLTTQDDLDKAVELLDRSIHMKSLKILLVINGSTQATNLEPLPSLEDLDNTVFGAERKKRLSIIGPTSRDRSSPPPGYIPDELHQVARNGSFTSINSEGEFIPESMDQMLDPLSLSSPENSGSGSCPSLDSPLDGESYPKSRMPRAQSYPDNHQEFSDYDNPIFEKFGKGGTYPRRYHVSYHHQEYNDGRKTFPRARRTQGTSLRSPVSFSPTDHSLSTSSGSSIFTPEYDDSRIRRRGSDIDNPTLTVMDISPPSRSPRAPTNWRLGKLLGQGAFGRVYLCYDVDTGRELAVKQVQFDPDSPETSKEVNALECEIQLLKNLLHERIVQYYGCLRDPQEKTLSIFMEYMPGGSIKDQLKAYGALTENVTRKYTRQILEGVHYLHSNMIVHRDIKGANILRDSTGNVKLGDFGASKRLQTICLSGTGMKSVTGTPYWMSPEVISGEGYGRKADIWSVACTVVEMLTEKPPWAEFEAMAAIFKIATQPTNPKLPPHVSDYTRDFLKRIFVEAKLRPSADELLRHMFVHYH
TAOK2 (human), sequence (Q9UL54 whole entry, looked up): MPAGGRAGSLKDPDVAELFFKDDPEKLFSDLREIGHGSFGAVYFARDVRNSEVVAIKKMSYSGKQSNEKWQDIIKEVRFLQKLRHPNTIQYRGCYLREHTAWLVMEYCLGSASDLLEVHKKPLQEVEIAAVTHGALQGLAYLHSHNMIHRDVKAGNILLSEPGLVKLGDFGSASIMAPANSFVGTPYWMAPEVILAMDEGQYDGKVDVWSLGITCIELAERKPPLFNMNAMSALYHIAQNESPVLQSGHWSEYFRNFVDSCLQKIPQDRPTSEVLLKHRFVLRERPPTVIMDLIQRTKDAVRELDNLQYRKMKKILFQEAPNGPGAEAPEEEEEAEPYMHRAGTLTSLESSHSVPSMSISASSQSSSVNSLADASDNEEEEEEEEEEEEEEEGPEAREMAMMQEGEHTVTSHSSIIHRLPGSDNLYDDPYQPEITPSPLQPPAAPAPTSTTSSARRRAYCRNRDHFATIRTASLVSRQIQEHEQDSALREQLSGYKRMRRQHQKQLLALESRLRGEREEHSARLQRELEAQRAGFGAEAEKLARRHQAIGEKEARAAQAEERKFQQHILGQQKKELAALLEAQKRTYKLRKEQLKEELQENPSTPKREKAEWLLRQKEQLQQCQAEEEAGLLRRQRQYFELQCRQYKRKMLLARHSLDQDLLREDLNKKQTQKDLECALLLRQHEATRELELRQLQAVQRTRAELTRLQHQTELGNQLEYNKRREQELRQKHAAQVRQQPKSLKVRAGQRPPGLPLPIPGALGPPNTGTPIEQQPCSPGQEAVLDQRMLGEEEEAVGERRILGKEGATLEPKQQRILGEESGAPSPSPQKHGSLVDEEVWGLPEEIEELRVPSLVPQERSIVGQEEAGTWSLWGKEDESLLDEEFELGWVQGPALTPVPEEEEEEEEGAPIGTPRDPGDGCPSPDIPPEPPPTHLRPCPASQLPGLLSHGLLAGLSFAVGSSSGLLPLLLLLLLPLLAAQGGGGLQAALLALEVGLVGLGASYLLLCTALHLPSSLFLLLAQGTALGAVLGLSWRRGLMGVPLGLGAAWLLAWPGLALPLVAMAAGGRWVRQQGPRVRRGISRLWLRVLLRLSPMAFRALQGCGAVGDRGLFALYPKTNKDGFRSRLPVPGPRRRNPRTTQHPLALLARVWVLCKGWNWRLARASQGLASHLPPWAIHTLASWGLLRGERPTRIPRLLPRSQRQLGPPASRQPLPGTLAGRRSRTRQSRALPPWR
ABL1 (human), sequence (P00519 whole entry, looked up): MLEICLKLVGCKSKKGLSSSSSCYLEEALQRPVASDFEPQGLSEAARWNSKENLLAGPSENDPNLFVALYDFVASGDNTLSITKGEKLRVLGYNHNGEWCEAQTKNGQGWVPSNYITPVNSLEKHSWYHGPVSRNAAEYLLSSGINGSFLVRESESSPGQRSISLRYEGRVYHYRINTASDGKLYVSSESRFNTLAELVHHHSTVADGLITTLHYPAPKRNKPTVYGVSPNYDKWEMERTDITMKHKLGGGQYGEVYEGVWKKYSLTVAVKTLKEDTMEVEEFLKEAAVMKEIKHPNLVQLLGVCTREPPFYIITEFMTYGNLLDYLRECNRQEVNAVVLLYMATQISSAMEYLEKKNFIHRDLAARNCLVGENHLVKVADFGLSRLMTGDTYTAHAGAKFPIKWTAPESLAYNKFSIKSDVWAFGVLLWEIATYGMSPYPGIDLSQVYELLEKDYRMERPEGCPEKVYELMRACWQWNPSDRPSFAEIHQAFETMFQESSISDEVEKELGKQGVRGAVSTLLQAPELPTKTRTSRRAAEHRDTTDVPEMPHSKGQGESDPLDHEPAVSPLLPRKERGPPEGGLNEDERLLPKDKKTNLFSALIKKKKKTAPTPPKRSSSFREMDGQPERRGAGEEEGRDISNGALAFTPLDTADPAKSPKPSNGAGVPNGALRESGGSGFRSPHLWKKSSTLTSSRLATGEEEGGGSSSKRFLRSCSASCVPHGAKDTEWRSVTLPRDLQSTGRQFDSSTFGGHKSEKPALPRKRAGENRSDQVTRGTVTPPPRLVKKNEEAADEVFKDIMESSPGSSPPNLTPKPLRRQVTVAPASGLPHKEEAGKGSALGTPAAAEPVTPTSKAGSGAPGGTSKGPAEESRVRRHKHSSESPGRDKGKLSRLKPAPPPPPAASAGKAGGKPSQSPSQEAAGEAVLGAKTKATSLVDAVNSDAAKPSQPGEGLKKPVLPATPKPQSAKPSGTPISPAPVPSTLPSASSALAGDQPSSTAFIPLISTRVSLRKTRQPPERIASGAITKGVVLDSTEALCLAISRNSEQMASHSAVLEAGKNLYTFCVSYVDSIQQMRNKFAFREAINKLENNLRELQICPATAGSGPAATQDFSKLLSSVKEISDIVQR
CSNK2A2 (human), sequence (P19784 whole entry, looked up): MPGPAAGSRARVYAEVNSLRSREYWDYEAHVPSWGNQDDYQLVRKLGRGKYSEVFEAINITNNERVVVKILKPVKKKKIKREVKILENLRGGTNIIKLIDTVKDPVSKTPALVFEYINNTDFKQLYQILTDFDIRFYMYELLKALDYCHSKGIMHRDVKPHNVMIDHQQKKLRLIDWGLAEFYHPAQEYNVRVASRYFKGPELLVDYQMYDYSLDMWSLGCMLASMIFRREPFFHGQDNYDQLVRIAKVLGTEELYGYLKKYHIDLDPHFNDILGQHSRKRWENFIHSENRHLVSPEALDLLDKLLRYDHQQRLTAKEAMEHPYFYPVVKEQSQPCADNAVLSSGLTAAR
MAP2K2 (human), sequence (P36507 whole entry, looked up): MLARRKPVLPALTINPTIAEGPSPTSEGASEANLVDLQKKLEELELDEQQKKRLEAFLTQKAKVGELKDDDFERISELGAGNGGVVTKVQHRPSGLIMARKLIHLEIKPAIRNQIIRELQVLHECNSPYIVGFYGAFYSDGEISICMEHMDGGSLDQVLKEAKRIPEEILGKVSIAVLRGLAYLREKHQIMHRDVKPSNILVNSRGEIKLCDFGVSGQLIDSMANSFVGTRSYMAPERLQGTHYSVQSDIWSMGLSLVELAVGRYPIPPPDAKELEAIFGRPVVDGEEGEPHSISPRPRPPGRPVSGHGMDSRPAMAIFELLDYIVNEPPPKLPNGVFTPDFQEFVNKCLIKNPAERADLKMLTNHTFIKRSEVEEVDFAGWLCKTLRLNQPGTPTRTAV

O=C1NC(=O)c2c1c1c3ccccc3n3c1c1c2c2ccccc2n1C1CCC3O1
residual activity [1]: 72.7% | residual activity [2]: 113% | residual activity [3]: 9.52% | residual activity [4]: 33.6% | residual activity [5]: 22.2% | residual activity [6]: 23.3% | residual activity [7]: 43.1% | residual activity [8]: 4.47% | residual activity [9]: 78.3% | residual activity [10]: 78.7% | residual activity [11]: 69.2% | residual activity [12]: 98.4% | residual activity [13]: 4.6% | residual activity [14]: 29.1% | residual activity [15]: 8.29% | residual activity [16]: 21.8% | residual activity [17]: 87.9% | residual activity [18]: 2.66% | residual activity [19]: 1.37% | residual activity [20]: 14% | residual activity [21]: 94.6% | residual activity [22]: 8.72% | residual activity [23]: 0.995% | residual activity [24]: 138% | residual activity [25]: 99.2% | residual activity [26]: 8.53% | residual activity [27]: 43.3% | residual activity [28]: 75.6% | residual activity [29]: 15.9% | residual activity [30]: 50.5% | residual activity [31]: 32.8% | residual activity [32]: 86.4% | residual activity [33]: 87.4% | residual activity [34]: 1.6% | residual activity [35]: 12.4% | residual activity [36]: 35% | residual activity [37]: 34.4% | residual activity [38]: 3.22% | residual activity [39]: 57.4% | residual activity [40]: 142% | residual activity [41]: 17.7% | residual activity [42]: 89.1%

CCOC(=O)c1c(C)[nH]c(/C=C2\C(=O)Nc3ccccc32)c1C
residual activity [1]: 95.4% | residual activity [2]: 96.6% | residual activity [3]: 67.3% | residual activity [4]: 93.1% | residual activity [5]: 106% | residual activity [6]: 96.7% | residual activity [7]: 98.2% | residual activity [8]: 94.7% | residual activity [9]: 92.2% | residual activity [10]: 91.9% | residual activity [11]: 85.3% | residual activity [12]: 95.4% | residual activity [13]: 105% | residual activity [14]: 90.2% | residual activity [15]: 86.3% | residual activity [16]: 66.9% | residual activity [17]: 102% | residual activity [18]: 98.5% | residual activity [19]: 47% | residual activity [20]: 108% | residual activity [21]: 108% | residual activity [22]: 61.6% | residual activity [23]: 64.5% | residual activity [24]: 86.8% | residual activity [25]: 98.6% | residual activity [26]: 99.8% | residual activity [27]: 91.4% | residual activity [28]: 96.2% | residual activity [29]: 92% | residual activity [30]: 88.6% | residual activity [31]: 91.9% | residual activity [32]: 92.9% | residual activity [33]: 97% | residual activity [34]: 99.1% | residual activity [35]: 87% | residual activity [36]: 103% | residual activity [37]: 98.5% | residual activity [38]: 73.7% | residual activity [39]: 105% | residual activity [40]: 141% | residual activity [41]: 91.2% | residual activity [42]: 105%

COc1cc2ncnc(Nc3cccc(Cl)c3)c2cc1OC
residual activity [1]: 61.8% | residual activity [2]: 98% | residual activity [3]: 74.4% | residual activity [4]: 96.6% | residual activity [5]: 103% | residual activity [6]: 91% | residual activity [7]: 103% | residual activity [8]: 92.3% | residual activity [9]: 0.718% | residual activity [10]: 68.3% | residual activity [11]: 65% | residual activity [12]: 98.1% | residual activity [13]: 98.7% | residual activity [14]: 64.4% | residual activity [15]: 93.8% | residual activity [16]: 60.3% | residual activity [17]: 102% | residual activity [18]: 101% | residual activity [19]: 84.1% | residual activity [20]: 98.2% | residual activity [21]: 104% | residual activity [22]: 82.8% | residual activity [23]: 68.1% | residual activity [24]: 89% | residual activity [25]: 98% | residual activity [26]: 89.8% | residual activity [27]: 90.2% | residual activity [28]: 92.6% | residual activity [29]: 89.8% | residual activity [30]: 89.6% | residual activity [31]: 105% | residual activity [32]: 97.5% | residual activity [33]: 102% | residual activity [34]: 91.2% | residual activity [35]: 94.5% | residual activity [36]: 105% | residual activity [37]: 101% | residual activity [38]: 124% | residual activity [39]: 96.1% | residual activity [40]: 126% | residual activity [41]: 95.7% | residual activity [42]: 103%

Nc1ccc2ncnc(NCCc3ccc(Oc4ccccc4)cc3)c2c1
residual activity [1]: 89.7% | residual activity [2]: 101% | residual activity [3]: 99.1% | residual activity [4]: 102% | residual activity [5]: 109% | residual activity [6]: 103% | residual activity [7]: 101% | residual activity [8]: 103% | residual activity [9]: 112% | residual activity [10]: 102% | residual activity [11]: 104% | residual activity [12]: 97.7% | residual activity [13]: 102% | residual activity [14]: 97.4% | residual activity [15]: 104% | residual activity [16]: 106% | residual activity [17]: 94.9% | residual activity [18]: 91.9% | residual activity [19]: 103% | residual activity [20]: 98.4% | residual activity [21]: 97.2% | residual activity [22]: 103% | residual activity [23]: 99.2% | residual activity [24]: 104% | residual activity [25]: 108% | residual activity [26]: 86.4% | residual activity [27]: 103% | residual activity [28]: 98.7% | residual activity [29]: 89.7% | residual activity [30]: 98.5% | residual activity [31]: 95.2% | residual activity [32]: 103% | residual activity [33]: 96% | residual activity [34]: 97.8% | residual activity [35]: 107% | residual activity [36]: 99.2% | residual activity [37]: 116% | residual activity [38]: 105% | residual activity [39]: 102% | residual activity [40]: 88.3% | residual activity [41]: 100% | residual activity [42]: 103%
